# Columns and labels:
# thromboxane synthetase = target: T1, thromboxane synthetase (Homo sapiens, UniProt P24557); experiment: Thromboxane production in Human Platelet Rich Plasma (collagen-stimulated, TxB2 radioimmunoassay); format: cell-based; details: 10 min. incubation, collagen 20 μg/ml, 37° C., read-out: ACTIVITY (IC50 × 10^6 M), inhibition of collagen-induced TxB2 generation
# T1 construct: The citrated blood was centrifuged at 160 g for 10 mins. at 22° C. to obtain platelet rich plasma (prp); endogenous in cells; host or cells: human platelets in citrated platelet rich plasma from healthy male donors
# T1 sequence (P24557 1-533): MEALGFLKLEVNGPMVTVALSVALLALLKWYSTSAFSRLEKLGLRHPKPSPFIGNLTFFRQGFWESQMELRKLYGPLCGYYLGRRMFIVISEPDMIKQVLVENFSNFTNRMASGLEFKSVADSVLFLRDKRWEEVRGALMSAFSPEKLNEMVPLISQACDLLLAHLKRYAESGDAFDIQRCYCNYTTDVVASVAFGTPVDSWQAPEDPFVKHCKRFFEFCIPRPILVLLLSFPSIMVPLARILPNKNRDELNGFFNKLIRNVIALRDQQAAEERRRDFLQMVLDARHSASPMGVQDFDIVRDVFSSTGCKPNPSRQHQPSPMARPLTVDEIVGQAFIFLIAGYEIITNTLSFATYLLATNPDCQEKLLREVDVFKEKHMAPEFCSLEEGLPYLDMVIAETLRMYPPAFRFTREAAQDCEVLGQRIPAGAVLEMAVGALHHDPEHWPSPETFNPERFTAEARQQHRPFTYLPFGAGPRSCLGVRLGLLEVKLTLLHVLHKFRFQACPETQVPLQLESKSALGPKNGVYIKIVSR
# Method: (i) inhibition of the generation of thromboxane A2 as determined by radioimmunoassay of its stable metabolite, thromboxane B2 (New England Nuclear, Thromboxane B2 [^3 H] RIA kit, Catalogue No. NEK 007); and
# Various compounds of the present invention were evaluated utilizing an in vitro radioimmunoassay as described in the following Example in order to determine inhibition of thromboxane production.
# Thromboxane production in Human Platelet Rich Plasma
# (a) Platelet rich plasma (prp) preparation
# Human venous blood was collected from healthy male donors, who had denied any medication during the previous 14 days. Nine volumes of blood were mixed with one volume of 3.24% trisodium citrate. The citrated blood was centrifuged at 160 g for 10 mins. at 22° C. to obtain platelet rich plasma (prp). The platelets were then counted on a Coulter counter, and the platelet count was adjusted to 200,000 per μl with plasma.
# (b) Thromboxane generation
# The prp was then dispensed as aliquots into micro-Eppendorf tubes, maintained at 37° C. in a dry bath. The compound to be evaluated was dissolved either in saline, ethanol, or dimethylsulphoxide, and added in duplicate to the prp aliquots to produce a final concentration in the range of 0.1-30 μg/ml. When ethanol or dimethylsulphoxide was used to dissolve the compound, triplicate controls containing the same percentage of ethanol or dimethyl sulphoxide as the test compound was made. The final concentration of organic solvent was never greater than 0.1%, which has been determined to have no effect on TxB2 generation.
# Following a 10 min. incubation withtest compounds or controls, collagen was added to the tubes containing the test compounds to produce a final concentration of 20 μg/ml. The tubes were then whirly-mixed for 15 seconds and replaced in the dry bath for a further 10 minutes. Saline was added to the tubes containing the controls, in lieu of collagen. The reaction was then stopped by rapid centrifugation (15000 g for 3 mins). The plasma was removed and frozen at -29° C. until assayed.
# (c) Assay of Thromboxane B2
# Aliquots (100 μl) of thromboxane TxB2 (plasma extract or standards 50 to 10,000 pg/ml), [^3 H]-TxB2 (approximately 15,000 dpm) and anti-TxB2 antiserum (0.5 μg/100 μl) were combined in […] phosphate buffer+0.1% gelatin+thimerosal (pH 6.8) were incubated for 16 hours at 4° C. The free and protein bound [^3 H]-TxB2 were separated by absorption onto activated charcoal followed by centrifugation. 1.0 ml of the supernatant was added to an aqueous scintillation fluid, and the radioactivity present was counted in a liquid scintillation counter. The binding of [^3 H]-TxB2 in the absence of added TxB2 was approximately 55%. The minimum concentration of TxB2 to be detected accurately in the plasma was 50 pg.ml. Cross reactivity with other prostaglandins was less than 0.005% except with PGD2 wherein the cross reactivity was 1%.
# The plasma samples were initially assayed to give approximation of TxB2 content. The plasma was then appropriately diluted and re-assayed in duplicate to give final values.
# The amount of TxB2 generated by collagen was calculated by subtracting mean values obtained for the saline stimulated platelets from the mean values obtained from the collagen stimulated platelets. The amount of TxB2 generated in the presence of each concentration of test compound was expressed as a % of control and dose response curves were constructed to determine the concentration of test compound which produced 50% inhibition.
# [1] = system: Thromboxane Formation (plasma TXB2); experiment: Whole Blood Aggregation and Thromboxane Formation In Vivo: Guinea Pig (plasma TXB2 by RIA); details: oral (dose not given), ex vivo collagen-stimulated citrated whole blood, normalized to platelet count
# Method: Whole Blood Aggregation and Thromboxane Formation In Vivo: Guinea Pig
# All guinea pigs (albino male Dunkin-Bartley, 300-350 g) were fasted overnight before use in the test. The test compound was administered by oral dosing needle to conscious animals. All test compounds, if not water soluble, were administered formulated in a 50% PEG 400/50% carboxymethylcellulose mixture as solution or suspension. Oral dose volumes were 0.1 ml per 100 g body weight.
# Animals were anaesthetized with pentabarbitone sodium (60 mg/kg) given intraperitoneally approximately 10 minutes before the bleed time. Once surgically anaesthetized, the peritoneal cavity was opened, and 4.5 ml blood was drawn into a syringe containing 0.5 ml 3.0% trisodium citrate (9:1 v/v) from the abdominal aorta via a 21/23 gauge butterfly needle. The blood was gently mixed with the citrate in the syringe, and transferred to a screwcap plastic tube. Animals were dosed and bled at one hour intervals.
# Aggregation of the citrated guinea pig whole blood was carried out within 1-2 hours of bleeding, using standard whole blood aggregometry and counting technique. Aliquots (0.55 ml) of citrated whole blood were heated to 37° C. and stirred at 1000 RPM in an aggregometer. An initial 50 μl sample of blood was withdrawn for counting, collagen was added, and additional samples were withdrawn at 1, 2, 3 and 4 minutes. Aggregation was monitored by noting the decrease in single platelet count. Buffer (no collagen) control were included.
# At the end of the four minute incubation for platelet counting, the remainder of each blood sample was allowed to stir for one additional minute. At 5 minutes, 1.0 μl of 19 mg/ml indomethacin (dissolved in dimethylsulfoxide) was added to each sample, resulting in a final indomethacin concentration of 30 ug/ml. The resulting solutions were mixed (15-30 seconds) and cooled on ice. Samples were centrifuged and 150 ul of plasma was removed. The plasma samples were frozen until radioimmunoassay for TXB2. The radioimmunoassay was conducted as previously described at plasma dilutions of 1:20. Two vehicle administered control aminals were run. Groups of at least four animals per test compound were utilized.
# The raw results obtained in the RIA from a 0.1 ml sample of 1:20 diluted plasma were corrected to pg/ml in original plasma sample (×200). The R.I.A. values were then normalized for initial platelet count within the blood sample to 5.0×10^8 ml^-1 (range of platelet count in citrated guinea pig whole blood was varied between the limits […] ml^-1). The test and control results were then compared, and inhibition (%) calculated in the normal way. Statistical analysis is again by Student's t-test.
Compound,IC50 (thromboxane synthetase) [µM],% INHIBITION (plasma TXB2) [1] [%]
CCOC(=O)c1ccc(/C=C(/COCc2ccc(OC)cc2)Cn2ccnc2)cc1Cl [10 (E-isomer)],4.78,-18.6
CCOC(=O)c1ccc(/C=C(/COCc2ccc(OC)cc2)Cn2ccnc2)cc1OC [11 (E-isomer)],21.8,-36.0
"CCOC(=O)c1ccc(/C=C(\CCCc2ccc(OC)cc2)Cn2ccnc2)cc1 [12 (E-isomer), ethyl 4-[2-[(1H-imidazol-1-yl)-methyl]-5-(4-methoxyphenyl)-1E-pentenyl]benzoate]",0.15,-92.3
"CCOC(=O)CCCCCC=C(COCc1ccc(OC)cc1)Cn1ccnc1 [Example 4, ethyl 9-(1H-imidazol-1-yl)-8-[[(4-methoxyphenyl)methoxy]methyl]-7-nonenoate]",9.3,–
"COc1ccc(COCC(=CCCCCCC(=O)O)Cn2ccnc2)cc1 [Example 5, 9-(1H-Imidazol-1-yl)-8-[[(4-methoxyphenyl)methoxy]methyl]-7-nonenoic acid]",4.6,-4.0
"COc1ccc(COCC(=CCCCCC(=O)O)Cn2ccnc2)cc1 [Example 6, 8-(1H-Imidazol-1-yl)-7-[[(4-methoxyphenyl)methoxy]methyl]-6-octenoic acid]",1.4,–
"COc1ccc(C=C(COCc2ccc(OC)cc2)Cn2ccnc2)cc1 [Example 7, 1-[3-(4-Methoxyphenyl)-2-[[(4-methoxyphenyl)methoxy]methyl]-2-propenyl]-1H-imidazole]",17.3,–
"CCOC(=O)CCCCCC=C(CCCc1ccc(OC)cc1)Cn1ccnc1 [Example 8, Ethyl 8-[(1H-imidazol-1-yl)methyl]-11-(4-methoxyphenyl)-7-undecenoate]",1.8,–

# Further lines, with some results ahead:
IC50 (thromboxane synthetase) [µM],Compound,% INHIBITION (plasma TXB2) [1] [%]
0.89,"CCOC(=O)c1ccc(/C=C(/COCc2ccc(OC)cc2)Cn2ccnc2)cc1 [1 (E-isomer), ethyl 4-[3-(1H-imidazol-1-yl)-2-[[(4-methoxyphenyl)methoxy]methyl]-1E-propenyl]benzoate]",–
0.022,"CCOC(=O)c1ccc(/C=C(\COCc2ccc(OC)cc2)Cn2ccnc2)cc1 [1 (Z-isomer), ethyl 4-[3-(1H-imidazol-1-yl)-2-[[(4-methoxyphenyl)methoxy]methyl]-1Z-propenyl]benzoate]",-45.5
403,"CCOC(=O)c1cccc(/C=C(/COCc2ccc(OC)cc2)Cn2ccnc2)c1 [9 (E-isomer), ethyl 3-[3-(1H-imidazol-1-yl)-2-[[(4-methoxyphenyl)methoxy)methyl]-1E-propenyl]-benzoate]",–
11.5,"CCOC(=O)c1cccc(/C=C(\COCc2ccc(OC)cc2)Cn2ccnc2)c1 [9 (Z-isomer), ethyl 3-[3-(1H-imidazol-1-yl)-2-[[(4-methoxyphenyl)methoxy]methyl]-1Z-propenyl]benzoate]",–
0.45,"CCOC(=O)c1ccc(/C=C(\COCc2ccc(F)cc2)Cn2ccnc2)cc1 [13 (Z-isomer), ethyl 4-[2-[[(4-fluorophenyl)methoxy]-methyl]-3-(1H-imidazol-1-yl)-1Z-propenyl]benzoate]",-49.1
18.2,"COc1ccc(COC/C(=C/c2ccc(C(=O)O)cc2)Cn2ccnc2)cc1 [Example 2, 4-[3-(1H-imidazol-1-yl)-2-[[(4-methoxyphenyl)methoxy]methyl]-1E-propenyl]benzoic acid]",–
0.56,"COc1ccc(COC/C(=C\c2ccc(C(=O)O)cc2)Cn2ccnc2)cc1 [Example 3, 4-[3-(1H-Imidazol-1-yl)-2-[[(4-methoxyphenyl)methoxy]methyl]-1Z-propenyl]benzoic acid]",–

# From patent US4837333A, “Substituted alkylidene imidazoles” (G. D. Searle & Co., priority 1987, dated 1989)
